Test results as given in PMC10569036.

Key:
[1] = shake flask on a mixture of 185; loss from the water phase only; LC-QTOF peak areas; conditions: room
[2] = shake flask on a mixture of 185; loss from the water phase only; LC-Orbitrap peak areas; conditions: room

Compound	log partition 1-octanol / HPLC water, unbuffered, traces of methanol / DMSO [1] [log10]	log partition butyl acetate / HPLC water, unbuffered, traces of methanol / DMSO [1] [log10]	log partition chloroform / HPLC water, unbuffered, traces of methanol / DMSO [1] [log10]	log partition cyclohexane / HPLC water, unbuffered, traces of methanol / DMSO [1] [log10]	log partition dichloromethane / HPLC water, unbuffered, traces of methanol / DMSO [1] [log10]	log partition n-hexane / HPLC water, unbuffered, traces of methanol / DMSO [1] [log10]	log partition n-octane / HPLC water, unbuffered, traces of methanol / DMSO [1] [log10]	log partition n-undecane / HPLC water, unbuffered, traces of methanol / DMSO [1] [log10]	log partition oleylalcohol / HPLC water, unbuffered, traces of methanol / DMSO [1] [log10]	log partition toluene / HPLC water, unbuffered, traces of methanol / DMSO [1] [log10]	log partition 1-octanol / HPLC water, unbuffered, traces of methanol / DMSO [2] [log10]	log partition butyl acetate / HPLC water, unbuffered, traces of methanol / DMSO [2] [log10]	log partition chloroform / HPLC water, unbuffered, traces of methanol / DMSO [2] [log10]	log partition cyclohexane / HPLC water, unbuffered, traces of methanol / DMSO [2] [log10]	log partition dichloromethane / HPLC water, unbuffered, traces of methanol / DMSO [2] [log10]	log partition n-hexane / HPLC water, unbuffered, traces of methanol / DMSO [2] [log10]	log partition n-octane / HPLC water, unbuffered, traces of methanol / DMSO [2] [log10]	log partition n-undecane / HPLC water, unbuffered, traces of methanol / DMSO [2] [log10]	log partition oleylalcohol / HPLC water, unbuffered, traces of methanol / DMSO [2] [log10]	log partition toluene / HPLC water, unbuffered, traces of methanol / DMSO [2] [log10]
O=C(Nc1ccccc1-c1ccc(Cl)cc1)c1cccnc1Cl	2.544	2.85	2.789	1.857	2.321	1.024	1.335	1.129	1.78	2.524	3.752	4.674	1.201	2.491	2.846	1.664	1.841	2.234	3.336	3.533
CCC(C)(CC)c1cc(NC(=O)c2c(OC)cccc2OC)on1	1.786	2.159	2.432	1.696	1.861	0.9529	1.176	1.012	2.115	2.04	2.911	2.863	1.794	1.372	2.835	0.9138	0.8981	0.6241	2.582	2.848
CCc1nn(C)c(C(=O)NCc2ccc(C(C)(C)C)cc2)c1Cl	0.9057	1.589	1.982	2.337	2.036	2.449	2.089	1.893	0.96	1.518	1.459	1.634	0.2173	0.942	3.08	0.5625	1.395	0.9075	1.51	1.132
C#CC(C)(C)NC(=O)c1cc(Cl)cc(Cl)c1	2.331	2.368	2.908		2.85				2.008	2.121	2.462	2.969	1.414		3				2.211	2.779
O=C(c1ccccc1)c1ccc(O)cc1O	2.033	2.368	1.568	-0.7702	1.235	-0.7955	-0.8875	-0.7905	1.696	1.076	1.665	2.111	0.8448	-0.5373	1.668	-1.173	-0.7644	-1.267	1.444	0.1696
